Patent US11352352B2, “Aminopyrimidine compound, preparation method therefor and use thereof” (BEIJING ADAMADLE BIOTECHNOLOGY LIMITED LIABILITY COMPANY, priority 2017, dated 2022)

Experiments:
Test in all cases: Cell proliferation inhibition experiment, CellTiter-Glo (CTG) method
Assay type in all cases: cell-based
NCI-H1975 = conditions: for IC50: Homo sapiens, NCI-H1975, 72 h, NCI-H1975 cells, CTG, 3 days; for A-431/NCI-H1975 Selectivity: ratio of A-431 IC50 to NCI-H1975 IC50
Outline: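 NCI-H1975 cells with viability above 90% by trypan blue were seeded at 90 μL per well in black 96-well plates and incubated overnight at 37° C., 5% CO2. Compounds were added at nine concentrations in triplicate, and viability was measured with CellTiter-Glo luminescence on EnVision. IC50 came from non-linear S-curve fitting in GraphPad Prism 5.0.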

PC-9 = conditions: Homo sapiens, PC-9, 72 h, PC-9 cells, 3 days
Outline: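 Cells in log-phase growth (viability above 90% by trypan blue) were seeded at 90 μL per well in black-walled, clear-bottom 96-well plates and incubated overnight at 37° C., 5% CO2. A T0 plate was read the next day. Test compounds were added at nine concentrations in triplicate with a solvent control. Viability was measured by CellTiter-Glo luminescence on EnVision, and IC50 came from non-linear S-curve fitting in GraphPad Prism 5.0.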

A-431 = conditions: Homo sapiens, A-431, 72 h, A-431 cells, 3 days
Outline: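 Log-phase cells (viability >90%) were plated and incubated overnight, then dosed in triplicate across nine 3-fold concentrations. The top dose was 30 μM on A-431 and 1.111 μM on NCI-H1975 and PC-9. Survival after 3 days was measured by CellTiter-Glo and IC50 derived by non-linear regression.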

| SMILES | IC50 (NCI-H1975) | IC50 (PC-9) | IC50 (A-431) | A-431/NCI-H1975 Selectivity (NCI-H1975) |
| --- | --- | --- | --- | --- |
| C=CC(=O)Nc1cc(Nc2cc(-c3ccc4nc(C)sc4c3)ncn2)c(OC)cc1N1CCN(CCN(C)C)CC1 [compound 190] | 0.108 µM | 0.0247 µM | 2.08 µM | 19.3 |
| C=CC(=O)Nc1cc(Nc2cc(-c3ccc4cnn(C)c4c3)ncn2)c(OC)cc1N(C)CCN(C)C [compound 2] | 0.0066 µM | 0.0044 µM | 0.362 µM | – |
| C=CC(=O)Nc1cc(Nc2nccc(-c3ccc4c(cnn4C)c3)n2)c(OC)cc1N(C)CCN(CC)CC [compound 239] | 0.033 µM | 0.0679 µM | 1.58 µM | 47.8 |
| C=CC(=O)Nc1cc(Nc2nccc(-c3ccc4c(cnn4C)c3)n2)c(OC)cc1N(C)C1CCN(C)C1 (stereo not drawn) [compound 109] | 0.0323 µM | 0.035 µM | 1.43 µM | 44.4 |
| C=CC(=O)Nc1cc(Nc2nccc(-c3ccc4c(cnn4C)c3)n2)c(OC)cc1NCCN(C)C [compound 248] | 0.0133 µM | 0.0277 µM | 2.85 µM | 214.3 |
| C=CC(=O)Nc1cc(Nc2cc(-c3ccc4c(cnn4C)c3)ncn2)c(OC)cc1N1CCN(CC)[C@@H](C)C1 [compound 28] | 0.0323 µM | 0.0196 µM | 1.43 µM | 44.2 |
| C=CC(=O)Nc1cc(Nc2cc(-c3ccc4cnn(C)c4c3)ncn2)c(OC)cc1N1CCN(C)C[C@H]1C [compound 44] | 0.102 µM | 0.0328 µM | 1.6 µM | 15.7 |
| C=CC(=O)Nc1cc(Nc2cc(-c3ccc4c(cnn4C(C)C)c3)ncn2)c(OC)cc1N(C)C1CCN(C2CCN(C)CC2)CC1 [compound 87] | 0.114 µM | 0.0776 µM | 1.96 µM | 17.2 |
| C=CC(=O)Nc1cc(Nc2cc(-c3ccc4c(cnn4C)c3)ncn2)c(OC)cc1C(=O)N(C)CCN(C)C [compound 286] | 0.0401 µM | 0.0309 µM | 0.804 µM | 20.0 |
| C=CC(=O)Nc1cc(Nc2cc(-c3ccc4c(cnn4C)c3)ncn2)c(OCC)cc1N1CCN(CCN(C)C)CC1 [compound 117] | 0.0113 µM | 0.0112 µM | 0.679 µM | 60.1 |
| C=CC(=O)Nc1cccc(Nc2nc(Nc3ccc4c(cnn4C)c3)ncc2F)c1 [known compound 296, reference compound] | 0.0907 µM | 0.121 µM | 1.44 µM | 15.9 |
| C=CC(=O)Nc1cc(Nc2cc(-c3ccc4c(cnn4C)c3)ncn2)c(OC)cc1N1CC(N(C)C)C1 [compound 10] | 0.0473 µM | 0.0277 µM | 1.99 µM | 42.0 |
| C=CC(=O)Nc1cc(Nc2cc(-c3ccc4c(cnn4C)c3)ncn2)c(OC)cc1N1CCCN(C)CC1 [compound 39] | 0.0245 µM | 0.0257 µM | 0.973 µM | 39.6 |
| C=CC(=O)Nc1cc(Nc2cc(-c3ccc4c(cnn4C)c3)ncn2)c(OC(F)F)cc1N1CCN(CCOC)CC1 [compound 145] | 0.0371 µM | 0.0337 µM | 1.46 µM | 39.3 |
| C=CC(=O)Nc1cc(Nc2cc(-c3ccc4c(cnn4CC)c3)ncn2)c(OC(F)F)cc1N1C[C@@H](C)N(C)[C@@H](C)C1 [compound 98] | 0.0835 µM | 0.0317 µM | 1.06 µM | 12.7 |
| C=CC(=O)Nc1cc(Nc2nccc(-c3ccc4c(cnn4C)c3)n2)c(OC)cc1N(C)CCO [compound 279] | 0.0257 µM | 0.0214 µM | 2.9 µM | 112.8 |
| C=CC(=O)Nc1cc(Nc2cc(-c3ccc4ncsc4c3)ncn2)c(OC)cc1N1C[C@@H](C)N(C)[C@@H](C)C1 [compound 82] | 0.024 µM | 0.0296 µM | 1.09 µM | 45.6 |
| C=CC(=O)Nc1cc(Nc2cc(-c3ccc4c(cnn4C)c3)ncn2)c(CC)cc1N1CCC(N2CCOCC2)CC1 [compound 283] | 0.0373 µM | 0.0469 µM | 1.52 µM | 40.8 |
| C=CC(=O)Nc1cc(Nc2cc(-c3ccc4cnn(C)c4c3)ncn2)c(OC)cc1N1CCN(C2CCOCC2)CC1 [compound 46] | 0.0828 µM | 0.0327 µM | 1.25 µM | 15.1 |

Continued by falling IC50 (NCI-H1975), values first:

| IC50 (NCI-H1975) | IC50 (PC-9) | IC50 (A-431) | SMILES | A-431/NCI-H1975 Selectivity (NCI-H1975) |
| --- | --- | --- | --- | --- |
| 0.0736 µM | 0.0679 µM | 1.1 µM | C=CC(=O)Nc1cc(Nc2cc(-c3ccc4cnn(C)c4c3)ncn2)c(OC)cc1N(C)CCCN(C)C [compound 79] | 15 |
| 0.0674 µM | 0.0218 µM | 2.14 µM | C=CC(=O)Nc1cc(Nc2cc(-c3ccc4c(cnn4C)c3)ncn2)c(OC)cc1C1CCN(C)CC1 [compound 11] | 31.7 |
| 0.0657 µM | 0.0357 µM | 1.58 µM | C=CC(=O)Nc1cc(Nc2nccc(-c3ccc4c(cnn4C)c3)n2)c(OC)cc1N1CCN(C)CC1 [compound 228] | 24.1 |
| 0.062 µM | 0.11 µM | 2.98 µM | C=CC(=O)Nc1cc(Nc2nccc(-c3ccc4c(cnn4CC)c3)n2)c(OC)cc1N(C)CCN(CC)CC [compound 240] | 48.0 |
| 0.0618 µM | 0.0478 µM | 1.03 µM | C=CC(=O)Nc1cc(Nc2cc(-c3ccc4cnn(C)c4c3)ncn2)c(OC)cc1N(C)CCN1CCN(C)CC1 [compound 78] | 16.7 |
| 0.057 µM | 0.0461 µM | 1.97 µM | C=CC(=O)Nc1cc(Nc2cc(-c3ccc4c(cnn4C)c3)ncn2)c(OC)cc1N(C)CCCN(C)C [compound 40] | 34.5 |
| 0.0557 µM | 0.0799 µM | 1.81 µM | C=CC(=O)Nc1cc(Nc2cc(-c3ccc4c(cnn4C)c3)ncn2)c(OC)cc1N1CCN(CC)[C@H](C)C1 [compound 29] | 32.6 |
| 0.053 µM | 0.0468 µM | 2.41 µM | C=CC(=O)Nc1cc(Nc2cc(-c3ccc4c(cnn4C)c3)ncn2)c(OC(F)F)cc1OCCN(C)C(C)C [compound 187] | 45.4 |
| 0.05 µM | 0.0407 µM | 2.65 µM | C=CC(=O)Nc1cc(Nc2cc(-c3ccc4cnn(C)c4c3)ncn2)c(OC(F)F)cc1N(C)C1CCN(C)C1 (stereo not drawn) [compound 165] | 53.0 |
| 0.0451 µM | 0.163 µM | 2.3 µM | C=CC(=O)Nc1cc(Nc2cc(-c3ccc4c(cnn4C)c3)ncn2)c(OC)cc1N(C)CCN1CCN(C2CC2)CC1 [compound 127] | 51.0 |
| 0.0405 µM | 0.0406 µM | 2.32 µM | C=CC(=O)Nc1cc(Nc2cc(-c3ccc4cnn(C)c4c3)ncn2)c(OC)cc1N(C)C1CCN(CCOC)C1 (stereo not drawn) [compound 223] | 57.4 |
| 0.0374 µM | 0.028 µM | 1.65 µM | C=CC(=O)Nc1cc(Nc2cc(-c3ccc4cnn(C)c4c3)ncn2)c(OC(F)F)cc1OCCN(C)C [compound 170] | 44.1 |
| 0.0371 µM | 0.0374 µM | 2.99 µM | C=CC(=O)Nc1cc(Nc2nccc(-c3ccc4c(cnn4C)c3)n2)c(OC(F)F)cc1N(C)CCNC(C)(C)C [compound 247] | 80.5 |
| 0.0352 µM | 0.0323 µM | 1.47 µM | C=CC(=O)Nc1cc(Nc2cc(-c3ccc4ncsc4c3)ncn2)c(OC)cc1N(C)CCN1CCN(C)CC1 [compound 124] | 41.7 |
| 0.0258 µM | 0.0346 µM | 0.686 µM | C=CC(=O)Nc1cc(Nc2cc(-c3ccc4cnn(C)c4c3)ncn2)c(OC)cc1N1CC(C)N(C)C(C)C1 (stereo not drawn) [compound 42] | – |
| 0.0227 µM | 0.0327 µM | 1.37 µM | C=CC(=O)Nc1cc(Nc2cc(-c3ccc4c(cnn4C)c3)ncn2)c(CC)cc1N1CCN(C)CC1 [compound 282] | 60.4 |
| 0.0165 µM | 0.0171 µM | 1.05 µM | C=CC(=O)Nc1cc(Nc2cc(-c3ccc4cnn(C)c4c3)ncn2)c(OC(F)F)cc1N1CCC(N(CC)CC)CC1 [compound 167] | – |
| 0.0093 µM | 0.0131 µM | 0.764 µM | C=CC(=O)Nc1cc(Nc2cc(-c3ccc4c(cnn4CC)c3)ncn2)c(OC(F)F)cc1N(C)CCN(C)C [compound 92] | 82.1 |
| 0.0091 µM | 0.0185 µM | 1.2 µM | C=CC(=O)Nc1cc(Nc2cc(-c3ccc4c(cnn4C)c3)ncn2)c(OC)cc1N(C)CCNC(C)C [compound 263] | 131.9 |
| 0.0052 µM | 0.0116 µM | 0.58 µM | C=CC(=O)Nc1cc(Nc2cc(-c3ccc4c(cnn4C)c3)ncn2)c(OC(F)F)cc1NCCN(C)C [compound 122] | 111.5 |
| 0.0047 µM | 0.0056 µM | 0.89 µM | C=CC(=O)Nc1cc(Nc2cc(-c3ccc4c(cnn4C)c3)ncn2)c(OC)cc1N(C)CCN(C)C [compound 1] | – |
